Test results from paper PMC7010356, “The thermodynamic profile and molecular interactions of a C(9)-cytisine derivative-binding acetylcholine-binding protein from Aplysia californica” (Acta Crystallographica. Section F, Structural Biology …, 2020).
pKd: −log10 of the molar value.

Molecular target: T1, acetylcholine-binding protein (AcAChBP) (Aplysia californica, UniProt Q8WSF8)
T1 construct: recombinant AcAChBP with a C-terminal Tobacco etch virus cleavage site and His6 tag; homopentamer
T1 sequence (Q8WSF8 20-236): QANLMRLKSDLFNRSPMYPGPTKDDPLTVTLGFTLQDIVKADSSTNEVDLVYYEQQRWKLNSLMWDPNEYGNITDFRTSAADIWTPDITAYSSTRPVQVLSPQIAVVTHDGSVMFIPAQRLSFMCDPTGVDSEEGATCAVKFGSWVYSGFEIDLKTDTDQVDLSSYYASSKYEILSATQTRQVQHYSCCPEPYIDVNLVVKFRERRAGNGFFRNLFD
Assay: ITC and […] Å crystal structure

O=c1c(CCCO)ccc2n1C[C@@H]1CNC[C@H]2C1 [compound 4, (1R,5S)-9-(3-hydroxypropyl)-1,2,3,4,5,6-hexahydro-1,5-methano-8H-pyrido[1,2a][1,5]diazocin-8-one] showed a pKd of 4.27.
